Source: publication PMC10229121, “An acetylation-mediated chromatin switch governs H3K4 methylation read-write capability” (eLife, 2023)
Entries after “also recorded” stand apart in the source; their conditions may differ.

Test system: H3K4 methylation and H3 acetylation in MCF-7 breast cancer cells
Assay: Middle-down mass spectrometry of histone H3 from MCF-7 cells ± KDAC inhibition (H3K4 methylation and H3 acetylation)
Assay type: cell-based
Settings: for 0ac state, percent of total H3 / 1ac state, percent of total H3 / 2ac state, percent of total H3 / 3ac state, percent of total H3 / 4ac state, percent of total H3 / 5ac state, percent of total H3: MCF-7, 5 mM butyrate 1H; for percent H3K4me3: sheet percentsk4me3
Protocol: MCF-7 breast cancer cells (ATCC HTB-22) were grown in MEM (Gibco) supplemented with 10% fetal bovine serum (VWR), 100 I.U. penicillin, 100 µg/mL streptomycin (Corning), 0.01 mg/mL human recombinant insulin (Gibco), and 5 µg/mL plasmocin (Invivogen) at 37 °C and 5% CO2. HEK-293 (ATCC CRL-1573) was grown in DMEM (Gibco) supplemented with 10% fetal bovine serum (Corning), 100 I.U. penicillin, and 100 µg/mL streptomycin (Gibco) at 37 °C and 5% CO2. Both cell lines were authenticated via STR profiling and confirmed to be Mycoplasma negative.
For mass spectrometric (MS) analysis ± KDAC inhibition, cells were cultured in 150 mm dishes to ~80% confluence and treated with 5 mM sodium butyrate (or equivalent volume of water) in triplicate for 0, 10, 20, 30, 60, 120 min. […] Histones were acid extracted after nuclei isolation as described ([Holt et al., 2021]). Isolated histones were resuspended in 85 µL 5% acetonitrile, 0.2% trifluoroacetic acid (TFA), and resolved by offline high-performance liquid chromatography (HPLC) as described ([Holt et al., 2021]). […] After chromatographic separation and fraction collection, histone H3.1 was selected, diluted in 100 mM ammonium acetate (pH = 4), and digested with Glu-C protease (Roche) at 10:1 protein:enzyme for 1 hr at room temperature prior to mass spectrometric analysis.
The digested samples were diluted to 2 µg/µL. Online HPLC was performed on a U3000 RSLC nano Pro-flow system using a C3 column (Zorbax 300 SB-C3, 5 µm; Agilent). Samples were maintained at 4 °C and 1 µL injected for each analysis using a microliter pickup. […] The column eluant was introduced into an Orbitrap Fusion Lumos mass spectrometer (Thermo Fisher) by nano-electrospray ionization. A static spray voltage of 1900 V and an ion transfer tube temperature of 320 °C were set for the source.
A Fusion Lumos mass spectrometer was used to generate MS data. The 9th charge state of histone H3 was targeted for analysis. MS1 analysis was acquired in the orbitrap with a normal mass range and a 60 k resolution setting in positive ion mode. An Automatic Gain Control (AGC) target of 5.0E5 with a 200 ms maximum injection time, three microscans, and a scan range of 585–640 m/z was used to identify desired ions for fragmentation. MS2 acquisition was performed in both orbitrap and ion trap modes. Both modes used electron transfer dissociation (ETD), a reaction time of 18ms, and an injection time of 200 ms. A normal scan range was used for the orbitrap mode with a resolution setting of 30 k and an AGC target of 5.0E5, with two micro scans. A narrow scan range of 470–530 m/z, targeting ions indicative of K4 modification states, was used for the ion trap mode MS2 with an ACG target of 3.0E4, quadrupole isolation, maximum injection time of 100ms, and eight microscans.
These MS methods were used with two technical replicates per biological replicate (n=3). An MS ion trap mode with a targeted mass list was used to increase sensitivity to identify known low-abundance K4me3-containing proteoforms. The ion trap MS2 spectra were averaged for each H3 acetyl state based on known retention times, and the intensities of ions indicative of the K4 methylation states were manually recorded. Retention times for each acetyl state were approximated as 0ac 35–40 min, 1ac 45–55 min, 2ac 55–60 min, 3ac 62–68 min, 4ac 69–73 min, and 5ac 74–78 min. Precursor mass was used as an additional confirmation and filter of the correct acetyl state. For scans yielding low signal and high noise (i.e. 5ac at 0 min butyrate treatment), data were manually curated before averaging. Within acetyl states, the relative proportion of fragment ions for unmodified, mono-, di-, and tri-methylation of the H3K4 ion at respective m/z of 474, 488, 502, and 516 were recorded per MS run. Values were averaged across replicates of the same conditions and normalized to one hundred percent. A two-tailed t-test was used for significance. […]

CCCC(=O)O [sodium butyrate]
0ac state, percent of total H3 (AVG n=3): 38.12% | 1ac state, percent of total H3 (AVG n=3): 25.98% | 2ac state, percent of total H3 (AVG n=3): 20.63% | 3ac state, percent of total H3 (AVG n=3): 12.03% | 4ac state, percent of total H3 (AVG n=3): 2.14% | 5ac state, percent of total H3 (AVG n=3): 1.10% | 0ac state, percent of total H3 (normalized, replicate 1): 53.59% | 1ac state, percent of total H3 (normalized, replicate 1): 15.56% | 2ac state, percent of total H3 (normalized, replicate 1): 13.01% | 3ac state, percent of total H3 (normalized, replicate 1): 15.85% | 4ac state, percent of total H3 (normalized, replicate 1): 1.53% | 5ac state, percent of total H3 (normalized, replicate 1): 0.47% | 0ac state, percent of total H3 (normalized, replicate 2): 28.79% | 1ac state, percent of total H3 (normalized, replicate 2): 37.29% | 2ac state, percent of total H3 (normalized, replicate 2): 21.30% | 3ac state, percent of total H3 (normalized, replicate 2): 8.21% | 4ac state, percent of total H3 (normalized, replicate 2): 3.37% | 5ac state, percent of total H3 (normalized, replicate 2): 1.05% | 0ac state, percent of total H3 (normalized, replicate 3): 31.98% | 1ac state, percent of total H3 (normalized, replicate 3): 25.08% | 2ac state, percent of total H3 (normalized, replicate 3): 27.59% | 3ac state, percent of total H3 (normalized, replicate 3): 12.04% | 4ac state, percent of total H3 (normalized, replicate 3): 1.54% | 5ac state, percent of total H3 (normalized, replicate 3): 1.77% | percent H3K4me3 (MCF-7, 5 mM butyrate 10M, 0ac, AVG n=3): 1.08% | percent H3K4me3 (MCF-7, 5 mM butyrate 10M, 1ac, AVG n=3): 0.40% | percent H3K4me3 (MCF-7, 5 mM butyrate 10M, 2ac, AVG n=3): 1.95% | percent H3K4me3 (MCF-7, 5 mM butyrate 10M, 3ac, AVG n=3): 2.18% | percent H3K4me3 (MCF-7, 5 mM butyrate 10M, 4ac, AVG n=3): 1.30% | percent H3K4me3 (MCF-7, 5 mM butyrate 10M, 5ac, AVG n=3): 0.42% | percent H3K4me3 (MCF-7, 5 mM butyrate 30M, 0ac, AVG n=3): 1.93% | percent H3K4me3 (MCF-7, 5 mM butyrate 30M, 1ac, AVG n=3): 1.29% | percent H3K4me3 (MCF-7, 5 mM butyrate 30M, 2ac, AVG n=3): 1.93% | percent H3K4me3 (MCF-7, 5 mM butyrate 30M, 3ac, AVG n=3): 1.64% | percent H3K4me3 (MCF-7, 5 mM butyrate 30M, 4ac, AVG n=3): 2.14% | percent H3K4me3 (MCF-7, 5 mM butyrate 30M, 5ac, AVG n=3): 4.20% | percent H3K4me3 (MCF-7, 5 mM butyrate 60M, 1ac, AVG n=3): 1.27% | percent H3K4me3 (MCF-7, 5 mM butyrate 60M, 2ac, AVG n=3): 1.44% | percent H3K4me3 (MCF-7, 5 mM butyrate 60M, 3ac, AVG n=3): 1.39% | percent H3K4me3 (MCF-7, 5 mM butyrate 120M, 0ac, AVG n=3): 1.23% | percent H3K4me3 (MCF-7, 5 mM butyrate 120M, 1ac, AVG n=3): 1.92% | percent H3K4me3 (MCF-7, 5 mM butyrate 120M, 2ac, AVG n=3): 2.41% | percent H3K4me3 (MCF-7, 5 mM butyrate 120M, 3ac, AVG n=3): 1.99% | percent H3K4me3 (MCF-7, 5 mM butyrate 120M, 4ac, AVG n=3): 4.58% | percent H3K4me3 (MCF-7, 5 mM butyrate 120M, 5ac, AVG n=3): 21.35% | H3K4 methylation, in words (MCF-7, 5 mM sodium butyrate): increase in all H3K4 methyl states relative to the unmodified state concomitant with increasing states of H3 acetylation; also recorded: H3K4me3 levels most dramatically increased in tandem with the 5ac H3 state; also recorded: H3K4 methylation increased for the most highly acetylated proteoforms | H3 poly-acetylation, in words (MCF-7, 5 mM sodium butyrate): H3 poly-acetylation rapidly increased
